Test results: patent US20260217683A1, “PYRIDAZINONE HETEROCYCLIC COMPOUND MYOSIN II INHIBITOR AND USE THEREOF” (Xizang Haisco Pharmaceutical Co., Ltd., priority 2023, published 2026)

Experiments:
[1] = target: T1, hERG potassium ion channel (Homo sapiens, UniProt Q12809); assay: Effect on hERG potassium ion channel (manual patch-clamp, CHO cells); assay type: cell-based; settings: CHO cells stably expressing hERG, whole cell patch-clamp; read-out: IC50 of the inhibitory effect on hERG potassium channel current
T1 construct: expressed in transfected cells
From the text: 1. Experimental platform: electrophysiological manual patch-clamp system
2. Cell line: Chinese hamster ovary (CH—O) cell lines stably expressing hERG potassium ion channel
3. Experimental method: in CHO (Chinese Hamster Ovary) cells stably expressing hERG potassium channel, whole cell patch-clamp technique was used to record hERG potassium channel current at room temperature. The glass microelectrode was made of a glass electrode blank (BF150-86-10, Sutter) by a puller. The tip resistance after filling the liquid in the electrode was about 2-5 MQ. The glass microelectrode can be connected to the patch-clamp amplifier by inserting the glass microelectrode into an amplifier probe. The clamping voltage and data recording were controlled and recorded by the pClamp 10 software through a computer. The sampling frequency was 10 kHz, and the filtering frequency was 2 kHz. After the whole cell records were obtained, the cells were clamped at −80 mV, and the step voltage that induced the hERG potassium current (IhERG) was depolarized from −80 mV to +20 mV for 2 s, then repolarized to −50 mV, and returned to −80 mV after 1 s. This voltage stimulation was given every 10 s, and the administration process was started after the hERG potassium current was confirmed to be stable (at least 1 minute). The compound was administered for at least 1 minute at each test concentration, and at least 2 cells (n≥2) were tested at each concentration.
4. Data processing: Data analysis processing was carried out by using pClamp 10, GraphPad Prism 5 and Excel software. The inhibition degree of hERG potassium current (peak value of hERG tail current induced at −50 mV) at different compound concentrations was calculated by the following formula:
[formula] • where Inhibition % represents the percentage of inhibition of hERG potassium current by the compound, and I and Io represent the amplitude of hERG potassium current after and before the administration, respectively.
Compound IC50 was calculated using GraphPad Prism 5 software by fitting according to the following equation: […]
Among the equation, X represents the Log value of the tested concentration of the test sample, Y represents the inhibition percentage at the corresponding concentration, and Bottom and Top represent the minimum and maximum inhibition percentage, respectively.

B10-Dmd-KO (Mdx) mice = assay: PK/PD detection of mouse model with Dmd (Mdx) gene mutation, plasma CK; assay type: in vivo; settings: oral
From the text: Experimental objective: Bl0-Dmd-KO (Mdx) mice are DMD function-deficient mice caused by frameshift mutations in the Dmd gene. […] This study has investigated the effects on CK and TNNI2 in the plasma of Mdx mice upon administration of compounds.
Experimental animal: B10-Dmd-KO (C57BL/10ScSnJGpt-Dmdem3Cd4/Gpt), male, 5-7 weeks old, weight 28-30 g, supplier. Gempharmatech Co., Ltd.;
• 1) Running training (D-5): Mdx mice underwent running training in batches. The training parameters were set as three time periods, i.e., the initial speed of 4 m/min for 2 min, then 8 m/min for 8 min, and finally 12 m/min for 30 min, a total of 40 min; • 2) Gripping strength test (D-2): each round was measured three times, and three rounds were performed; • 3) Grouping (DO): the animals were anesthetized by inhalation of isoflurane (concentration: 5%, gas flow rate: 1 L/min), and then a capillary tube was used to collect blood (about 150 μL) via orbital venous sinus into a 0.6 mL centrifuge tube containing EDTA anticoagulant, the plasma wad separated, and the CK value was detected, which was used as the basic value for grouping; • 4) Administration, grasping, and blood collection (D1): The compounds were dissolved in the vehicle 5% DMA+5% HS-15+90% Saline, then orally administered to the mice, and then the grip strength test was conducted (three tests per round for three rounds). […] A capillary tube was used to collect blood (>300 μL) via orbital venous sinus into a 0.6 mL centrifuge tube containing EDTA anticoagulant, and then the animals were euthanized to collect the tibialis anterior muscle (left leg), soleus muscle (both legs) and cardiac muscle, which were weighed and recorded, placed in a homogenization tube and quickly frozen in liquid nitrogen, then stored at −80° C.
Sample processing: After the whole blood anticoagulated with EDTA was centrifuged at 3000 rpm and 4° C. for 10 min, the […] was collected and subpackaged. The separated […] was subjected to a biochemical analyzer (Fully automatic biochemical analyzer Roche C311) to detect the CK value and TNN12 value (Mouse TNNI2 Elisa Kit, ABBEXA, E2207370Y); The […] concentration of the compound and the drug concentration in tibialis anterior muscle, soleus muscle and cardiac muscle were measured by LC/MS instrument.

[2] = Pharmacokinetic experiment of beagle dogs; assay type: in vivo; settings: male, dog, plasma, oral, beagles, intragastric 3 mg/kg vs intravenous 1 mg/kg, read-out: bioavailability (F)
Protocol: 1. Experimental animals: male beagle dogs, about 8-11 kg, 6 beagle dogs/compound, purchased from Beijing Marshall Biotechnology Co., Ltd.
2. Experimental method: On the day of the test, (6×number of test compounds (n)) beagles were randomly divided into groups according to body weight. The animals were fasted with water available for 12 to 14 h one day before the administration and were fed 4 h after the administration. Administration was performed as per Table 6.
• Before and after the administration, 1 mL of blood was taken from the jugular veins or limb veins, and placed in an EDTAK2 centrifuge tube. Centrifugation was performed at 5000 rpm at 4° C. for 10 min, and plasma was collected. The blood collection time points for the intravenous group and intragastric administration group were: 0 min, 5 min, 15 min, 30 min, 1 h, 2 h, 4 h, 6 h, 8 h, 10 h, 12 h, 24 h, 48 h, 72 h, and 96 h. Before analysis and detection, all samples were stored at −80° C. The samples were analyzed quantitatively by LC-MS/MS.

[3] = 10 mpk, QD administration for 7 days

T1 sequence (Q12809 whole entry): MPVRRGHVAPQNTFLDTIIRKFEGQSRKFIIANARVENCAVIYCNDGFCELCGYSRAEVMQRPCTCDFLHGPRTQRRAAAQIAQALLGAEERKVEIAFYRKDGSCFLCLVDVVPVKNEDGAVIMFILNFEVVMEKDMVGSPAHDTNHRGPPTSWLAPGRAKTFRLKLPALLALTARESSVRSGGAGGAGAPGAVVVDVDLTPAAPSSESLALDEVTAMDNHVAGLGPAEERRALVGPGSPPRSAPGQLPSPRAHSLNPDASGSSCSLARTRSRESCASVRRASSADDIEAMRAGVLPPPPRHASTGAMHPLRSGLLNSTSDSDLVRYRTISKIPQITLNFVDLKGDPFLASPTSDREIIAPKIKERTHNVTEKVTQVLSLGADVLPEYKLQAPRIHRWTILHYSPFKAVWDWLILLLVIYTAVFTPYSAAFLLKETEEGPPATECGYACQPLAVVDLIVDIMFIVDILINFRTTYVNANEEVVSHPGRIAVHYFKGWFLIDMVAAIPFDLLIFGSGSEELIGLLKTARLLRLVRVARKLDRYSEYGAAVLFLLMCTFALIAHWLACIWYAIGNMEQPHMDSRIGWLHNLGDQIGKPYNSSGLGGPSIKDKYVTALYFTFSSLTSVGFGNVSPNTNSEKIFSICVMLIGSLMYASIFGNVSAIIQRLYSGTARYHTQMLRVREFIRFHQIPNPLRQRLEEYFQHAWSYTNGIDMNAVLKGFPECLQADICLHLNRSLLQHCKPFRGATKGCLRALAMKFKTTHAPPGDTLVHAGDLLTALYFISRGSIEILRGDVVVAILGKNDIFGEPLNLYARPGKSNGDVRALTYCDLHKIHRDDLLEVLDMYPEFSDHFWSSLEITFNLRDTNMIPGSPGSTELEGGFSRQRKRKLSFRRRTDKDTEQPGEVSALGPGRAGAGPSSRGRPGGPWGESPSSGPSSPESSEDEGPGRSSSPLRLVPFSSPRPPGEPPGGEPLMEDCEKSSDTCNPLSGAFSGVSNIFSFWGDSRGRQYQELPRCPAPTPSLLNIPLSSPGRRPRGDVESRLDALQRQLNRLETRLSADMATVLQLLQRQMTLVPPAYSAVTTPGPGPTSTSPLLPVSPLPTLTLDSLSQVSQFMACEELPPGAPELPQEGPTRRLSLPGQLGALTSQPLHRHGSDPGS

Row | Structure (SMILES) | IC50 [1] | further results
1 | O=C1CCc2ccc(Cn3nc(-c4cnc(OC5COCC5(F)F)nc4)ccc3=O)cc21 (stereo not drawn) [Compound 164] | > 40 µM | –
2 | O=C1CCc2ccc(Cn3nc(-c4cnc(OCC(F)F)nc4)ccc3=O)cc21 [Compound 131] | – | Inhibition rate of CK values (sampled 24 h after (last) dose) (B10-Dmd-KO (Mdx) mice; [3]): 94.1%; bioavailability [2]: 112%
3 | O=c1ccc(-c2cnc(OCC(F)(F)F)nc2)nn1Cc1ccc2c(c1)CCC2 [Compound 57] | > 40 µM | Inhibition rate of CK values (sampled 24 h after (last) dose) (B10-Dmd-KO (Mdx) mice; 10 mpk single administration): 108.2%
4 | O=C1CCc2ccc(Cn3nc(-c4cnc(OCC(F)(F)F)nc4)ccc3=O)cc21 [Compound 88] | – | Inhibition rate of CK values (sampled 24 h after (last) dose) (B10-Dmd-KO (Mdx) mice; [3]): 91.6%
5 | O=C1CCc2c(F)cc(Cn3nc(-c4cnc(O[C@H]5CCOC5)nc4)ccc3=O)cc21 [Compound 165] | > 40 µM | –
6 | N#CC1(COc2ncc(-c3ccc(=O)n(Cc4ccc5c(c4)C(=O)CC5)n3)cn2)CC1 [Compound 158] | > 40 µM | –
7 | O=C1CCc2ccc(Cn3nc(-c4cnc(O[C@H]5CCOC5)nc4)ccc3=O)cc21 [Compound 150] | > 40 µM | –
